What was measured:
[1] = Alizarin red (ARS) assay, glucose binding affinity; settings: 20 mM phosphate buffer pH 7.4, room temperature
Procedure: (§1) The alizarin-red binding assay is a colorimetric assay used to determine the inhibition affinity of boronate compounds to glucose. The assay is based on a colour shift of alizarin-red upon binding to boronate, which shift can be followed by change in absorbance in the 330-340 nm region.
(§2) After 5 minutes of centrifugation at 4000 rpm, the plate is placed in a multi-well spectrometer (SpectraMax, Molecular Devices) for absorption detection.
(§3) The analysis is carried out at room temperature with absorption readings at 330, 340 and 520 nm, respectively. Data obtained for absorption versus concentration of boronate is then fitted (Prism 7, GraphPad) with a sigmoidal function to obtain the Kd value of boronate and ARS.
(§4) Upon complete dissolution of the compound, 200 μM of Alizarin red (ARS) is added to the solution. The ARS-boronate solution is then aliquoted into a 96 multiwell plate (black, flat and clear bottom) 1:1 with appropriate carbohydrate. In particular, D-glucose and L-lactate solutions are prepared in a 20 mM phosphate buffer pH 7.4 at these concentrations respectively: 1000, 500, 250, 100, 50, 25, 10, 5, 2.5, 1, 0.25, 0.1 mM and 2500, 1000, 500, 100, 50, 10, 5, 1, 0.5, 0.1, 0.05, 0.01 mM. The plate with ARS-boronate mixed with carbohydrate is incubated 20 minutes at room temperature. After 5 minutes of centrifugation at 4000 rpm the plate is placed in a multiwell spectrometer (Spectra Max, Molecular Devices) for absorption detection.
(§5) The analysis is carried out at room temperature with absorption readings at 330, 340 and 520 nm, respectively.

[2] = Alizarin red (ARS) assay, lactate binding affinity; settings: 20 mM phosphate buffer pH 7.4, room temperature, N.D. = not detectable
Procedure: as §1, §2, §3, §4, §5

`O=C(O)CN(CCNC(=O)c1cc2c(c(S(=O)(=O)C(F)(F)F)c1)COB2O)C(=O)c1cc2c(c(S(=O)(=O)C(F)(F)F)c1)COB2O` [Example 42, N-(1-Hydroxy-4-((trifluoromethyl)sulfonyl)-1,3-dihydrobenzo[c][1,2]oxaborole-6-carbonyl)-N-(2-(1-hydroxy-4-((trifluoromethyl)sulfonyl)-1,3-dihydrobenzo-[c][1,2]oxaborole-6-carboxamido)ethyl)glycine] gave a Kd [1] of 1.1 mM.

`O=C(O)CNC(=O)c1cc(B(O)O)cc(C(F)(F)c2cc(B(O)O)cc(C(F)(F)F)c2)c1` [Example 18, (3-Borono-5-((3-borono-5-(trifluoromethyl)phenyl)difluoromethyl)benzoyl)glycine] gave a Kd [2] of 13 mM and a Kd [1] of 0.4 mM.

Compound `O=C(O)CN(CCNC(=O)c1cc(F)c2c(c1)B(O)OC2)C(=O)c1cc(F)c2c(c1)B(O)OC2` [Example 8, N-(4-Fluoro-1-hydroxy-1,3-dihydrobenzo[c][1,2]oxaborole-6-carbonyl)-N-(2-(4-fluoro-1-hydroxy-1,3-dihydrobenzo[c][1,2]oxaborole-6-carboxamido)ethyl)glycine] has a Kd [2] of 34 mM and a Kd [1] of 2.7 mM.

Work on `O=C(O)c1cc(CNC(=O)c2ccc(B(O)O)c(F)c2)cc(CNC(=O)c2ccc(B(O)O)c(F)c2)c1` [Example 2, 3,5-Bis((4-borono-3-fluorobenzamido)methyl)benzoic acid] yielded a Kd [2] of 5.4 mM and a Kd [1] of 3.4 mM.

Work on `O=C(O)c1cc(B(O)O)c(F)c(S(=O)(=O)c2ccc(F)c(B(O)O)c2)c1` [Example 11, 3-Borono-5-((3-borono-4-fluorophenyl)sulfonyl)-4-fluorobenzoic acid] yielded a Kd [2] of 17 mM and a Kd [1] of 1.8 mM.

`O=C(O)CCC(=O)N1C[C@@H](NC(=O)c2cc3c(c(C(F)(F)F)c2)COB3O)[C@H](NC(=O)c2cc3c(c(C(F)(F)F)c2)COB3O)C1` [Example 29, 4-[(3R,4R)-3,4-bis[[1-hydroxy-4-(trifluoromethyl)-3H-2,1-benzoxaborole-6-carbonyl]amino]pyrrolidin-1-yl]-4-oxobutanoic acid] showed a Kd [1] of 2.3 mM.

In the case of `O=C(O)CN=S(=O)(c1cc(B(O)O)cc(C(F)F)c1)c1cc(B(O)O)cc(C(F)F)c1` [Example 34, 2-((Bis(3-borono-5-(difluoromethyl)phenyl)(oxo)-λ6-sulfanylidene)amino)acetic acid], the Kd [2] is reported as 24.9 mM and the Kd [1] is reported as 2.1 mM.

`O=C(O)CNC(=O)c1cc(B(O)O)cc(S(=O)(=O)c2cccc(B(O)O)c2)c1` [Example 39, (3-Borono-5-((3-boronophenyl)sulfonyl)benzoyl)glycine] gave a Kd [2] of 27 mM and a Kd [1] of 2.4 mM.

In the case of `O=C(O)c1cc(B(O)O)cc(C(=O)c2cc(B(O)O)c(F)cc2F)c1` [Example 13, 3-Borono-5-(5-borono-2,4-difluorobenzoyl)benzoic acid], the Kd [2] is reported as 4 mM and the Kd [1] is reported as 0.3 mM.

For `O=C(O)CN=S(=O)(c1cc(Cl)cc(B(O)O)c1)c1cc(Cl)cc(B(O)O)c1` [Example 35, 2-((Bis(3-borono-5-chlorophenyl)(oxo)-λ6-sulfanylidene)amino)acetic acid], the Kd [2] was 20 mM and the Kd [1] was 0.6 mM.

`O=C(O)CN(CCNC(=O)c1cc2c(cc1F)B(O)OC2)C(=O)c1cc2c(cc1F)B(O)OC2` [Example 9, N-(6-Fluoro-1-hydroxy-1,3-dihydrobenzo[c][1,2]oxaborole-5-carbonyl)-N-(2-(6-fluoro-1-hydroxy-1,3-dihydrobenzo[c][1,2]oxaborole-5-carboxamido)ethyl)glycine] showed a Kd [2] of 67.9 mM and a Kd [1] of 2.6 mM.

In the case of `O=C(O)c1cc(B(O)O)cc(C(=O)c2cc(F)cc(B(O)O)c2)c1` [Example 12, 3-Borono-5-(3-borono-5-fluorobenzoyl)benzoic acid], the Kd [2] is reported as 18 mM and the Kd [1] is reported as 1.1 mM.

For `O=C(O)CN(CCNC(=O)c1cc2c(cc1C(F)(F)F)COB2O)C(=O)c1cc2c(cc1C(F)(F)F)COB2O` [Example 37, N-(1-Hydroxy-5-(trifluoromethyl)-1,3-dihydrobenzo[c][1,2]oxaborole-6-carbonyl)-N-(2-(1-hydroxy-5-(trifluoromethyl)-1,3-dihydrobenzo[c][1,2]oxaborole-6-carboxamido)ethyl)glycine], the Kd [2] was 13 mM and the Kd [1] was 4.2 mM.

Work on `O=C(O)CNC(=O)c1cc(B(O)O)cc(S(=O)(=O)c2cc(B(O)O)cc(S(F)(F)(F)(F)F)c2)c1` [Example 28, (3-Borono-5-((3-borono-5-(pentafluoro-λ^6-sulfanyl)phenyl)sulfonyl)benzoyl)glycine] yielded a Kd [1] of 0.3 mM.

In the case of `O=C(O)CN(CCNC(=O)c1cc2c(c(C(F)F)c1)COB2O)C(=O)c1cc2c(c(C(F)F)c1)COB2O` [Example 31, N-(4-(Difluoromethyl)-1-hydroxy-1,3-dihydrobenzo[c][1,2]oxaborole-6-carbonyl)-N-(2-(4-(difluoromethyl)-1-hydroxy-1,3-dihydrobenzo[c][1,2]oxaborole-6-carboxamido)ethyl)glycine], the Kd [2] is reported as 100 mM and the Kd [1] is reported as 0.8 mM.

`O=C(NC[C@H](NC(=O)c1cc(F)c2c(c1)B(O)OC2)C(=O)O)c1cc(F)c2c(c1)B(O)OC2` [Example 17, (S)-2,3-Bis(4-fluoro-1-hydroxy-1,3-dihydrobenzo[c][1,2]oxaborole-6-carboxamido) propanoic acid] gave a Kd [1] of 1.6 mM.

For `O=C(O)c1c(C(F)(F)F)cc(B(O)O)cc1S(=O)(=O)c1cc(B(O)O)cc(C(F)(F)F)c1` [Example 43, 4-Borono-2-((3-borono-5-(trifluoromethyl)phenyl)sulfonyl)-6-(trifluoromethyl)benzoic acid], the Kd [2] was 22 mM and the Kd [1] was 0.7 mM.

Work on `O=C(NC[C@H](NC(=O)c1cc2c(cc1F)COB2O)C(=O)O)c1cc2c(cc1F)COB2O` [Example 16, (S)-2,3-Bis(5-fluoro-1-hydroxy-1,3-dihydrobenzo[c][1,2]oxaborole-6-carboxamido)propanoic acid] yielded a Kd [2] of 37 mM and a Kd [1] of 4.2 mM.

With `O=C(O)c1cc(CNC(=O)c2ccc(B(O)O)cc2F)cc(CNC(=O)c2ccc(B(O)O)cc2F)c1` [Example 1, 3,5-Bis((4-borono-2-fluorobenzamido)methyl)benzoic acid] the Kd [2] was 8.6 mM and the Kd [1] was 3.1 mM.

Compound `O=C(NCCCC[C@H](NC(=O)c1cc2c(cc1F)B(O)OC2)C(=O)O)c1ccc(B(O)O)cc1F` [Example 14, N^6-(4-Borono-2-fluorobenzoyl)-N^2-(6-fluoro-1-hydroxy-1,3-dihydrobenzo[c][1,2]oxaborole-5-carbonyl)-L-lysine] has a Kd [2] of 16 mM and a Kd [1] of 3.2 mM.

Work on `O=C(O)CNC(=O)c1cc(B(O)O)cc(S(=O)(=O)c2cc(F)cc(B(O)O)c2)c1` [Example 24, (3-Borono-5-((3-borono-5-fluorophenyl)sulfonyl)benzoyl)glycine] yielded a Kd [2] of 34 mM and a Kd [1] of 1.2 mM.

With `CS(=O)(=O)c1cc(C(=O)NCCN(CC(=O)O)C(=O)c2cc3c(c(S(C)(=O)=O)c2)COB3O)cc2c1COB2O` [Example 41, N-(1-Hydroxy-4-(methylsulfonyl)-1,3-dihydrobenzo[c][1,2]oxaborole-6-carbonyl)-N-(2-(1-hydroxy-4-(methylsulfonyl)-1,3-dihydrobenzo[c][1,2]oxaborole-6-carboxamido)ethyl)glycine] the Kd [2] was 4.4 mM and the Kd [1] was 1.4 mM.

With `O=C(O)CNC(=O)c1cc(B(O)O)cc(C(=O)c2cc(B(O)O)cc(C(F)(F)F)c2)c1` [Example 19, (3-Borono-5-(3-borono-5-(trifluoromethyl)benzoyl)benzoyl)glycine] the Kd [2] was 17 mM and the Kd [1] was 1.5 mM.

Work on `O=C(O)CN(CCNC(=O)c1ccc2c(c1F)B(O)OC2)C(=O)c1ccc2c(c1F)B(O)OC2` [Example 5, N-(7-Fluoro-1-hydroxy-1,3-dihydrobenzo[c][1,2]oxaborole-6-carbonyl)-N-(2-(7-fluoro-1-hydroxy-1,3-dihydrobenzo[c][1,2]oxaborole-6-carboxamido)ethyl)glycine] yielded a Kd [2] of 40 mM and a Kd [1] of 0.8 mM.

Compound `O=C(O)c1cc(CNC(=O)c2ccc3c(c2F)B(O)OC3)cc(CNC(=O)c2ccc3c(c2F)B(O)OC3)c1` [Example 6, 3,5-Bis((7-fluoro-1-hydroxy-1,3-dihydrobenzo[c][1,2]oxaborole-6-carboxamido)methyl) benzoic acid] has a Kd [1] of 1.1 mM.

For `O=C(O)CN=S(=O)(c1cc2c(c(C(F)(F)F)c1)COB2O)c1cc2c(c(C(F)(F)F)c1)COB2O` [Example 38, 2-((Bis(1-hydroxy-4-(trifluoromethyl)-1,3-dihydrobenzo[c][1,2]oxaborol-6-yl)(oxo)-λ6-sulfanylidene)amino)acetic acid], the Kd [1] was 3.7 mM.

With `O=C(NC[C@H](NC(=O)c1ccc2c(c1)B(O)OC2)C(=O)O)c1ccc2c(c1)B(O)OC2` [Example 40, (S)-2,3-Bis(1-hydroxy-1,3-dihydrobenzo[c][1,2]oxaborole-6-carboxamido)propanoic acid] the Kd [1] was 2 mM.

With `O=C(O)CCC(=O)N1C[C@H](NC(=O)c2ccc3c(c2F)B(O)OC3)[C@@H](NC(=O)c2ccc3c(c2F)B(O)OC3)C1` [Example 21, 4-((3S,4S)-3,4-Bis(7-fluoro-1-hydroxy-1,3-dihydrobenzo[c][1,2]oxaborole-6-carboxamido)pyrrolidin-1-yl)-4-oxobutanoic acid] the Kd [1] was 2.6 mM.

With `O=C(NCCCC[C@H](NC(=O)c1cc2c(cc1F)B(O)OC2)C(=O)O)c1cc2c(cc1F)B(O)OC2` [Example 10, N^2,N^6-Bis(6-fluoro-1-hydroxy-1,3-dihydrobenzo[c][1,2]oxaborole-5-carbonyl)-L-lysine] the Kd [1] was 3.2 mM.
